Laboratory results taken from US7105654B1, “Ethylene receptor gene from Glycine max and its use” (Monsanto Technology LLC, priority 2002, dated 2006).

Tested on: soybean (Glycine max) seedlings
Test: ACC insensitivity assay (hypocotyl length of dark-grown seedlings)
Type: in vivo
Details: nontransformed soybean variety Asgrow A4922, grown in the dark; without ACC greater than 70 millimeters
Description: FIG. 4. R1 seeds from pMON47103, pMON47104, and pMON47108 were screened by an ACC insensitivity assay. […] Hypocotyl length was measured after six days and the average value presented.
Seeds were germinated in growth pouches (Mega International, Minneapolis, Minn.) containing 25 milliliters of 25 micromolar 1-aminocyclopropane-1-carboxylic acid (ACC) (Sigma Chemical Company) or in tissue culture boxes containing agar, water, and 20 micromolar ACC. Seedlings were kept in the dark for seven days. Growth of hypocotyl and root were scored in comparison to seedlings grown in water with all other conditions identical. An alternative protocol was used to measure growth in a solid matrix. Vermiculite was placed in a 4″×4″ plastic pot to ½″ below the rim. Twelve seeds were placed in each pot beneath the surface of the vermiculite. A solution of 500 micromolar ACC in distilled water was used to saturate the vermiculite. The pots were placed in a tray with additional solution to ensure a supply during incubation. The plants were incubated in a dark ventilated cabinet at room temperature for six days. On the sixth day, seedlings were removed from the vermiculite and rinsed. The hypocotyl length (from first lateral root to the bend of the apical hook) was measured and compared against wild type plants grown in the same environmental condition. […]

NC1(C(=O)O)CC1 [ACC, 1-aminocyclopropane-1-carboxylic acid] was tested, and the “average height of seedlings in response to applied ACC” value was “less than 20 millimeters”.
